Values after ≈ are worked out from the molar mass of the structure shown.

Holding throughout (experiment): MTT cell growth inhibition, leukemia cells
Holding throughout (format): cell-based, human

Test [1] concerns H9 (acute lymphoblastic leukemia) cells. Conditions: Homo sapiens, H9, 72 h, MTT; for IC50: read-out: IC50; for IC90: read-out: IC90. From the text:
(§1) Leukemia cell lines: leukemia cell lines: K562adr (drug-resistant, chronic myeloid leukemia, CML), NB4 (acute promyelocytic leukemia, AML), Kasumi-1 (acute myeloid leukemia M2 type, AML-M2), Jurkat (acute lymphoblastic leukemia, ALL), all of which were donated by Cancer Research Institute of Zhejiang University, China; and H9 (acute lymphoblastic leukemia, ALL), which was purchased from China Center for Type Culture Collection.
(§2) Reagents: The standard sample of fangchinoline (FAN) was purchased from Ci Yuan Biotechnology Co., Ltd., Shaanxi, China; and the 7-substituted fangchinoline derivatives according to the present invention.
(§3) 6000 well-growing leukemia cells were obtained and inoculated into wells of a 96-well cell culture plate. The culture medium was a RPMI-1640 cell culture medium containing 10% fetal bovine serum. After adding the 7-substituted fangchinoline derivatives of different concentrations the next day and mixing uniformly, the plate was placed in a carbon dioxide cell incubator (5% CO2) at 37° C. and incubating for 72 hours. Then the viable cell concentration was determined by the MTT method.

Test [2] deals with Kasumi-1 (acute myeloid leukemia M2 type) cells. Conditions: Homo sapiens, Kasumi-1, 72 h, MTT; for IC50: read-out: IC50; for IC90: read-out: IC90.
Source text: as §1, §2, §3

Test [3] concerns Jurkat (acute lymphoblastic leukemia) cells. The conditions noted are these: Homo sapiens, Jurkat, 72 h, MTT; for IC50: read-out: IC50; for IC90: read-out: IC90.
Source text: as §1, §2, §3

Turning to `COc1ccc2cc1Oc1ccc(cc1)C[C@H]1c3cc(c(OC)cc3CCN1C)Oc1c(OS(=O)(=O)c3ccc(C)cc3)c(OC)cc3c1[C@H](C2)N(C)CC3` [BS-FC-102], the IC50 (as a rule, the concentration that inhibits the measured activity by half) came to 2.4 µg/mL (≈ 3.15 µM) in test [1], 1.93 µg/mL (≈ 2.53 µM) in test [2] and 0.72 µg/mL (≈ 0.944 µM) in test [3]. Moreover, the IC90 – broadly, the point of the concentration-response curve where the effect stands at 90% – worked out at 6.4 µg/mL (≈ 8.39 µM) in test [1], 4.32 µg/mL (≈ 5.66 µM) in test [2] and 1.97 µg/mL (≈ 2.58 µM) in test [3].
As for `COc1ccc2cc1Oc1ccc(cc1)C[C@H]1c3cc(c(OC)cc3CCN1C)Oc1c(OS(=O)(=O)c3ccccc3)c(OC)cc3c1[C@H](C2)N(C)CC3` [BS-FC-104], the IC50 in test [1] came out at 1 µg/mL (≈ 1.34 µM); in test [2], 0.95 µg/mL (≈ 1.27 µM); in test [3] it was 0.45 µg/mL (≈ 0.601 µM). Besides, the IC90 in test [1] worked out at 4.99 µg/mL (≈ 6.66 µM); in test [2], 3.68 µg/mL (≈ 4.91 µM); in test [3], 3.03 µg/mL (≈ 4.05 µM).
For `COc1ccc2cc1Oc1ccc(cc1)C[C@H]1c3cc(c(OC)cc3CCN1C)Oc1c(OCc3cccc(F)c3F)c(OC)cc3c1[C@H](C2)N(C)CC3` [BS-FC-204], the IC50 was determined as 2.2 µg/mL (≈ 2.99 µM) in test [1], 1.29 µg/mL (≈ 1.76 µM) in test [2] and 2.23 µg/mL (≈ 3.03 µM) in test [3]. Also, the values for the IC90 in test [1], in test [2] and in test [3] were 3.7 µg/mL (≈ 5.04 µM), 3.16 µg/mL (≈ 4.3 µM) and 3.86 µg/mL (≈ 5.25 µM), respectively.
On to `COc1ccc2cc1Oc1ccc(cc1)C[C@H]1c3cc(c(OC)cc3CCN1C)Oc1c(OCC3CC3)c(OC)cc3c1[C@H](C2)N(C)CC3` [BS-FC-208], for which the results for the IC50 in test [1], in test [2] and in test [3] were 2.01 µg/mL (≈ 3.03 µM), 0.97 µg/mL (≈ 1.46 µM) and 0.75 µg/mL (≈ 1.13 µM), respectively. For the same compound, the figures for the IC90 in test [1], in test [2] and in test [3] were 4.28 µg/mL (≈ 6.46 µM), 4.01 µg/mL (≈ 6.05 µM) and 1.88 µg/mL (≈ 2.84 µM), respectively.
On to `C=CCOc1c(OC)cc2c3c1Oc1cc4c(cc1OC)CCN(C)[C@H]4Cc1ccc(cc1)Oc1cc(ccc1OC)C[C@@H]3N(C)CC2` [BS-FC-213], for which the IC50 was determined as 2.2 µg/mL (≈ 3.39 µM) in test [1], 0.93 µg/mL (≈ 1.43 µM) in test [2] and 0.64 µg/mL (≈ 0.986 µM) in test [3]. In addition, the results for the IC90 in test [1], in test [2] and in test [3] were 4 µg/mL (≈ 6.17 µM), 3.66 µg/mL (≈ 5.64 µM) and 3.29 µg/mL (≈ 5.07 µM), respectively.
On to `COc1ccc2cc1Oc1ccc(cc1)C[C@H]1c3cc(c(OC)cc3CCN1C)Oc1c(OCc3ccc(C(F)(F)F)cc3)c(OC)cc3c1[C@H](C2)N(C)CC3` [BS-FC-216], for which the IC50 in test [1] stood at 1.8 µg/mL (≈ 2.35 µM); in test [2], 3.22 µg/mL (≈ 4.2 µM); in test [3] it was 1.42 µg/mL (≈ 1.85 µM). The IC90 in test [1] is 3.3 µg/mL (≈ 4.3 µM); in test [2] it was 7.22 µg/mL (≈ 9.42 µM); in test [3] it was 2.91 µg/mL (≈ 3.79 µM).
`COc1ccc2cc1Oc1ccc(cc1)C[C@H]1c3cc(c(OC)cc3CCN1C)Oc1c(OC3CCCC3)c(OC)cc3c1[C@H](C2)N(C)CC3` [BS-FC-220]: the IC50 in test [1] turned out to be 3.23 µg/mL (≈ 4.77 µM); in test [2], 1.15 µg/mL (≈ 1.7 µM); in test [3], 0.93 µg/mL (≈ 1.37 µM). For the same compound, the figures for the IC90 in test [1], in test [2] and in test [3] were 6.64 µg/mL (≈ 9.81 µM), 3.72 µg/mL (≈ 5.5 µM) and 3.09 µg/mL (≈ 4.57 µM), respectively.
As for `C=C(C)COc1c(OC)cc2c3c1Oc1cc4c(cc1OC)CCN(C)[C@H]4Cc1ccc(cc1)Oc1cc(ccc1OC)C[C@@H]3N(C)CC2` [BS-FC-221], the IC50 was determined as 1.96 µg/mL (≈ 2.96 µM) in test [1], 1 µg/mL (≈ 1.51 µM) in test [2] and 0.52 µg/mL (≈ 0.785 µM) in test [3]. In addition, the IC90 in test [1] worked out at 4 µg/mL (≈ 6.03 µM); in test [2], 3.39 µg/mL (≈ 5.11 µM); in test [3], 1.89 µg/mL (≈ 2.85 µM).
`COc1ccc2cc1Oc1ccc(cc1)C[C@H]1c3cc(c(OC)cc3CCN1C)Oc1c(OC(=O)C3CC3)c(OC)cc3c1[C@H](C2)N(C)CC3` [BS-FC-304]: the IC50 in test [1] was found to be 3.6 µg/mL (≈ 5.32 µM); in test [2], 1.54 µg/mL (≈ 2.28 µM); in test [3] it was 0.81 µg/mL (≈ 1.2 µM). Further, the IC90 was found to be 7.05 µg/mL (≈ 10.4 µM) in test [1], 3.94 µg/mL (≈ 5.82 µM) in test [2] and 2.94 µg/mL (≈ 4.34 µM) in test [3].

The values above are taken from patent US9328122B2, “7-substituted Hanfangichin B derivative, and preparation method and use thereof” (HANGZHOU BENSHENG PHARMACEUTICAL CO., LTD., priority 2012, dated 2016).
